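48-hour exposure; five concentrations; linearly interpolated endpoints. TGI marks complete inhibition of growth.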
Tests used:
Assay in all cases: NCI tumour cell line growth inhibition, 48 h
MDA-MB-231 breast = test system: MDA-MB-231 breast
CCRF-CEM leukemia = test system: CCRF-CEM leukemia
HT29 colon = test system: HT29 colon
HCT-116 colon = test system: HCT-116 colon
MDA-N = test system: MDA-N
NCI/ADR-RES ovarian = test system: NCI/ADR-RES ovarian
NCI-H522 lung = test system: NCI-H522 lung
SK-MEL-2 melanoma = test system: SK-MEL-2 melanoma
MOLT-4 leukemia = test system: MOLT-4 leukemia
OVCAR-8 ovarian = test system: OVCAR-8 ovarian
TK-10 renal = test system: TK-10 renal
U251 CNS = test system: U251 CNS
UACC-62 melanoma = test system: UACC-62 melanoma
IGROV1 ovarian = test system: IGROV1 ovarian
SK-MEL-5 melanoma = test system: SK-MEL-5 melanoma
UO-31 renal = test system: UO-31 renal
HOP-62 NSCLC = test system: HOP-62 NSCLC
SF-295 CNS = test system: SF-295 CNS
M14 melanoma = test system: M14 melanoma
MCF7 breast = test system: MCF7 breast
HS 578T breast = test system: HS 578T breast
786-0 renal = test system: 786-0 renal
NCI-H226 lung = test system: NCI-H226 lung
NCI-H23 lung = test system: NCI-H23 lung
HOP-92 NSCLC = test system: HOP-92 NSCLC
DU-145 prostate = test system: DU-145 prostate
OVCAR-3 ovarian = test system: OVCAR-3 ovarian
PC-3 prostate = test system: PC-3 prostate
SNB-19 CNS = test system: SNB-19 CNS
LOX IMVI melanoma = test system: LOX IMVI melanoma
OVCAR-5 ovarian = test system: OVCAR-5 ovarian
KM12 colon = test system: KM12 colon
OVCAR-4 ovarian = test system: OVCAR-4 ovarian
A498 renal = test system: A498 renal
K-562 leukemia = test system: K-562 leukemia
SW-620 colon = test system: SW-620 colon
HCC-2998 colon = test system: HCC-2998 colon
NCI-H460 lung = test system: NCI-H460 lung
SNB-75 CNS = test system: SNB-75 CNS
HCT-15 colon = test system: HCT-15 colon
BT-549 breast = test system: BT-549 breast
SN12C renal = test system: SN12C renal
CAKI-1 renal = test system: CAKI-1 renal
MALME-3M melanoma = test system: MALME-3M melanoma
HL-60(TB) leukemia = test system: HL-60(TB) leukemia
SR leukemia = test system: SR leukemia
ACHN renal = test system: ACHN renal
T-47D breast = test system: T-47D breast
RPMI-8226 leukemia = test system: RPMI-8226 leukemia
EKVX NSCLC = test system: EKVX NSCLC
SK-OV-3 ovarian = test system: SK-OV-3 ovarian
UACC-257 melanoma = test system: UACC-257 melanoma
SK-MEL-28 melanoma = test system: SK-MEL-28 melanoma
COLO 205 colon = test system: COLO 205 colon
MDA-MB-435 = test system: MDA-MB-435
A549 NSCLC = test system: A549 NSCLC
SF-539 CNS = test system: SF-539 CNS
SF-268 CNS = test system: SF-268 CNS

CCOC(=O)C(CS)NC(=O)CCCCCCCC(=O)O (configuration not stated)
TGI (MDA-MB-231 breast): > 100 µM | TGI (CCRF-CEM leukemia): > 100 µM | TGI (HT29 colon): > 100 µM | TGI (HCT-116 colon): > 100 µM | TGI (MDA-N): > 100 µM | TGI (NCI/ADR-RES ovarian): > 100 µM | TGI (NCI-H522 lung): > 100 µM | TGI (SK-MEL-2 melanoma): > 100 µM | TGI (MOLT-4 leukemia): > 100 µM | TGI (OVCAR-8 ovarian): > 100 µM | TGI (TK-10 renal): > 100 µM | TGI (U251 CNS): > 100 µM | TGI (UACC-62 melanoma): > 100 µM | TGI (IGROV1 ovarian): > 100 µM | TGI (SK-MEL-5 melanoma): > 100 µM | TGI (UO-31 renal): > 100 µM | TGI (HOP-62 NSCLC): > 100 µM | TGI (SF-295 CNS): > 100 µM | TGI (M14 melanoma): > 100 µM | TGI (MCF7 breast): > 100 µM | TGI (HS 578T breast): > 100 µM | TGI (786-0 renal): > 100 µM | TGI (NCI-H226 lung): > 100 µM | TGI (NCI-H23 lung): > 100 µM | TGI (HOP-92 NSCLC): > 100 µM | TGI (DU-145 prostate): > 100 µM | TGI (OVCAR-3 ovarian): > 100 µM | TGI (PC-3 prostate): > 100 µM | TGI (SNB-19 CNS): > 100 µM | TGI (LOX IMVI melanoma): > 100 µM | TGI (OVCAR-5 ovarian): > 100 µM | TGI (KM12 colon): > 100 µM | TGI (OVCAR-4 ovarian): > 100 µM | TGI (A498 renal): > 100 µM | TGI (K-562 leukemia): > 100 µM | TGI (SW-620 colon): > 100 µM | TGI (HCC-2998 colon): > 100 µM | TGI (NCI-H460 lung): > 100 µM | TGI (SNB-75 CNS): > 100 µM | TGI (HCT-15 colon): > 100 µM | TGI (BT-549 breast): > 100 µM | TGI (SN12C renal): > 100 µM | TGI (CAKI-1 renal): > 100 µM | TGI (MALME-3M melanoma): > 100 µM | TGI (HL-60(TB) leukemia): > 100 µM | TGI (SR leukemia): > 100 µM | TGI (ACHN renal): > 100 µM | TGI (T-47D breast): > 100 µM | TGI (RPMI-8226 leukemia): > 100 µM | TGI (EKVX NSCLC): > 100 µM | TGI (SK-OV-3 ovarian): > 100 µM | TGI (UACC-257 melanoma): > 100 µM | TGI (SK-MEL-28 melanoma): > 100 µM | TGI (COLO 205 colon): > 100 µM | TGI (MDA-MB-435): > 100 µM | TGI (A549 NSCLC): > 100 µM

Cc1c2ccccc2c(C)n2c1nc1cc3ccccc3cc12
TGI (MDA-MB-231 breast): 2.71 µM | TGI (CCRF-CEM leukemia): 6.65 µM | TGI (HT29 colon): 2.15 µM | TGI (HCT-116 colon): 2.71 µM | TGI (MDA-N): 2.89 µM | TGI (NCI/ADR-RES ovarian): 2.38 µM | TGI (NCI-H522 lung): 4.88 µM | TGI (SK-MEL-2 melanoma): 4.99 µM | TGI (MOLT-4 leukemia): 3.78 µM | TGI (OVCAR-8 ovarian): 2.21 µM | TGI (TK-10 renal): 8.43 µM | TGI (U251 CNS): 3.7 µM | TGI (UACC-62 melanoma): 3.9 µM | TGI (SF-539 CNS): 2.86 µM | TGI (IGROV1 ovarian): 2.53 µM | TGI (SK-MEL-5 melanoma): 4.46 µM | TGI (HOP-62 NSCLC): 2.76 µM | TGI (SF-268 CNS): 3.32 µM | TGI (SF-295 CNS): 2.28 µM | TGI (M14 melanoma): 2.76 µM | TGI (MCF7 breast): 1.6 µM | TGI (HS 578T breast): 3.56 µM | TGI (786-0 renal): 2.18 µM | TGI (NCI-H23 lung): 2.8 µM | TGI (HOP-92 NSCLC): 8.89 µM | TGI (DU-145 prostate): 2.78 µM | TGI (OVCAR-3 ovarian): 2.18 µM | TGI (PC-3 prostate): 2.79 µM | TGI (SNB-19 CNS): 5.01 µM | TGI (OVCAR-5 ovarian): 2.29 µM | TGI (KM12 colon): 2.62 µM | TGI (OVCAR-4 ovarian): 3.12 µM | TGI (K-562 leukemia): > 10 µM | TGI (SW-620 colon): > 10 µM | TGI (HCC-2998 colon): 3.27 µM | TGI (NCI-H460 lung): 2.55 µM | TGI (SNB-75 CNS): 3.48 µM | TGI (HCT-15 colon): 3.67 µM | TGI (BT-549 breast): 3.98 µM | TGI (SN12C renal): > 10 µM | TGI (CAKI-1 renal): 2.89 µM | TGI (MALME-3M melanoma): 2.63 µM | TGI (HL-60(TB) leukemia): 4.59 µM | TGI (SR leukemia): 7.34 µM | TGI (ACHN renal): > 10 µM | TGI (T-47D breast): > 10 µM | TGI (RPMI-8226 leukemia): 6.13 µM | TGI (EKVX NSCLC): 9.75 µM | TGI (SK-OV-3 ovarian): 7.74 µM | TGI (UACC-257 melanoma): > 10 µM | TGI (SK-MEL-28 melanoma): 2.92 µM | TGI (COLO 205 colon): 2.82 µM | TGI (MDA-MB-435): 3.07 µM | TGI (A549 NSCLC): 3.6 µM

COc1cc2c(cc1OC)C1c3ccccc3CCCN1CC2 (configuration not stated)
TGI (MDA-MB-231 breast): > 100 µM | TGI (CCRF-CEM leukemia): > 100 µM | TGI (HT29 colon): > 100 µM | TGI (HCT-116 colon): > 100 µM | TGI (MDA-N): > 100 µM | TGI (NCI/ADR-RES ovarian): > 100 µM | TGI (NCI-H522 lung): > 100 µM | TGI (SK-MEL-2 melanoma): > 100 µM | TGI (MOLT-4 leukemia): > 100 µM | TGI (OVCAR-8 ovarian): > 100 µM | TGI (TK-10 renal): > 100 µM | TGI (U251 CNS): > 100 µM | TGI (UACC-62 melanoma): > 100 µM | TGI (SF-539 CNS): > 100 µM | TGI (IGROV1 ovarian): > 100 µM | TGI (SK-MEL-5 melanoma): > 100 µM | TGI (UO-31 renal): > 100 µM | TGI (HOP-62 NSCLC): > 100 µM | TGI (SF-268 CNS): > 100 µM | TGI (SF-295 CNS): > 100 µM | TGI (M14 melanoma): > 100 µM | TGI (MCF7 breast): > 100 µM | TGI (HS 578T breast): > 100 µM | TGI (786-0 renal): > 100 µM | TGI (NCI-H226 lung): > 100 µM | TGI (NCI-H23 lung): > 100 µM | TGI (HOP-92 NSCLC): > 100 µM | TGI (DU-145 prostate): > 100 µM | TGI (OVCAR-3 ovarian): > 100 µM | TGI (PC-3 prostate): > 100 µM | TGI (SNB-19 CNS): > 100 µM | TGI (LOX IMVI melanoma): > 100 µM | TGI (OVCAR-5 ovarian): > 100 µM | TGI (KM12 colon): > 100 µM | TGI (OVCAR-4 ovarian): > 100 µM | TGI (A498 renal): > 100 µM | TGI (K-562 leukemia): > 100 µM | TGI (SW-620 colon): > 100 µM | TGI (HCC-2998 colon): > 100 µM | TGI (SNB-75 CNS): > 100 µM | TGI (HCT-15 colon): > 100 µM | TGI (BT-549 breast): > 100 µM | TGI (SN12C renal): > 100 µM | TGI (CAKI-1 renal): > 100 µM | TGI (MALME-3M melanoma): > 100 µM | TGI (HL-60(TB) leukemia): > 100 µM | TGI (SR leukemia): > 100 µM | TGI (ACHN renal): > 100 µM | TGI (T-47D breast): > 100 µM | TGI (RPMI-8226 leukemia): > 100 µM | TGI (EKVX NSCLC): > 100 µM | TGI (SK-OV-3 ovarian): > 100 µM | TGI (UACC-257 melanoma): > 100 µM | TGI (SK-MEL-28 melanoma): > 100 µM | TGI (COLO 205 colon): > 100 µM | TGI (MDA-MB-435): > 100 µM | TGI (A549 NSCLC): > 100 µM

Reference: PubChem BioAssay (NCI)
